# Legend:
# [1] = tested on: S. Newport; test: Reduction of S. Newport on sliced tomatoes; type: cell-based; settings: 4° C.
# Procedure: The skins of sliced tomatoes were spot inoculated with S. Newport. Sliced tomatoes were sealed in a controlled environment containing ClO2 or a regular plastic seal. The inoculated tomato skins were removed and processed on days 0, 1, 2, 5 and 7, after which S. Newport was evaluated by plating onto XLT-4 agar.
# S. Newport was grown in TSB at 37° C. for 18-24 hr. Bacteria was resuspended in E-pure water. Serial dilutions of the inoculum were plated onto XLT-4 plates and incubated at 37° C. for 18-24 hours.
# Tomatoes were first prepared by rinsing with 70% ethanol and thoroughly rinsing with sterile e-pure water. Tomatoes were sliced using a sterile tomato slicer (Prince Castle, Inc) and placed in pre-labelled trays. Five tomatoes were sliced per Aptar tray (4×10.3×3.4 inches). The tomatoes were spiked by inoculating two slices of each tomato with 10 μL of S. Newport. Tomatoes were incubated at room temperature for 1 hr. After drying, each tray was heat sealed with a tray sealing instrument (Maxwell Chase Technologies) at a temperature of 390° F. For the experimental group, the film was treated with 0.63 g of chlorine dioxide. Trays were stored at 4° C. until specimen collection. For each treatment of 1 hr, 24 hr, 48 hr, and 5 days, and 7 days a control and a treated tray were evaluated. Tomato skins of spiked slices were collected and tested for the presence of S. Newport. […]
# [2] = tested on: Microsporidia; test: Microsporidia spore viability on tomato slices (RK-13 culture, Calcofluor White); type: cell-based; settings: 4° C.
# Procedure: Rabbit kidney (Rk-13) cell lines were maintained in flasks using 3.5% Fetal Bovine Serum (HIFBS) EMEM medium 1× antibiotics and antimycotics. Flasks were incubated at 37° C. and 5% CO2 until preparation of slides. 16-microwell slides were seeded with cells and grown in 10% (HIFBS) EMEM medium for 48 hours before inoculation with spores.
# Fresh Microsporidia spores were propagated and harvested using RK-13 tissue cultures. The harvested medium containing cell debris and spores was filtered through a 5 μm filter, centrifuged at 2000 g for 15 minutes and counted using a hemocytometer.
# Tomatoes were first prepared by rinsing with 70% ethanol and thoroughly rinsing with sterile e-pure water. Tomatoes were sliced using a sterile tomato slicer (Prince Castle, Inc) and placed in pre-labelled trays. Five tomatoes were sliced per Aptar tray (4×10.3×3.4 inches). The tomatoes were spiked by inoculating two slices of each tomato with 10 microliters of oocysts. Tomatoes were incubated at room temperature for 1 hr. […] For each treatment of 1 hr, 24 hr, 48 hr, and 5 days, and 7 days a control and a treated tray were evaluated. […]
# Tomato slices spiked with Microsporidia were suspended in F12 media. […] Spore counts were taken using an epifluorescence microscope at 40× magnification and recorded.
smiles,measurement,setting,value
[O][Cl+][O-] [chlorine dioxide],inactivation of S. Newport,[1]; film with 0.63 g chlorine dioxide,effective in inactivation
same,inactivation of S. Newport,[1]; two days of treatment,complete inactivation
same,Microsporidia spore viability,[2]; 24 hours of treatment,completely inactivated
same,Microsporidia spore viability,[2]; after one hour of treatment,effectively reduced spore viability

# — patent US20250040558A1, “ANTIMICROBIAL ACTIVITY OF CHLORITE-ENTRAINED POLYMERS” (CSP Technologies, Inc., priority 2021, published 2025)
